Assay results published in patent US9932637B2, “Genetic polymorphisms associated with cardiovascular disorders and drug response, methods of detection and uses thereof” (CELERA CORPORATION, priority 2003, dated 2018).

Tested on: patients with prior myocardial infarction (CARE study)
Assay: CARE: association of SNPs with pravastatin treatment in cardiovascular events prevention (logistic regression, odds ratio pravastatin vs placebo by genotype; Table 8)
Format: in vivo, human
Conditions: for Prava vs. Placebo Odds Ratio, 1 Rare Alleles / Prava vs. Placebo Odds Ratio, 2 Rare Alleles / Non-fatal MI (def & prob), n/total (%) / Fatal/Non-fatal MI (def & prob), n/total (%) / Fatal CHD/Definite Non-fatal MI, n/total (%) / Total Coronary Heart Disease Events, n/total (%) / Fatal/Non-fatal Atherosclerotic CV Disease, n/total (%) / Hosp. for Cardiovascular Disease, n/total (%) / Total Cardiovascular Disease Events, n/total (%) / Prava vs. Placebo Odds Ratio, 0 Rare Alleles: All Patients; for Non-fatal MI (def & prob), n/total (%) / Fatal/Non-fatal MI (def & prob), n/total (%) / Fatal CHD/Definite Non-fatal MI, n/total (%) / Total Coronary Heart Disease Events, n/total (%) / Fatal/Non-fatal Atherosclerotic CV Disease, n/total (%) / Hosp. for Cardiovascular Disease, n/total (%) / Total Cardiovascular Disease Events, n/total (%): Prava
Excerpt: In order to identify genetic markers associated with acute coronary events (e.g. MI, stroke, unstable angina, congestive heart failure, etc.) or response to statin treatment for the prevention of coronary events, samples from the Cholesterol and Recurrent Events (CARE) study (a randomized multicentral double-blinded trial on secondary prevention of acute coronary events with pravastatin) (Sacks et al., 1991, Am. J. Cardiol. 68: 1436-1446) were genotyped. A well-documented myocardial infarction (MI) was one of the enrollment criteria for entry into the CARE study. Patients were enrolled in the CARE trial from 80 participating study centers. […] Patients were randomized to receive either 40 mg of pravastatin once daily or a matching placebo. The primary endpoint of the trial was death from coronary heart disease and the median duration of follow-up was 5.0 years (range, 4.0 to 6.2 years). […] Secondary endpoints of other related cardiovascular or metabolic disease events, and changes in clinical variables were also recorded in pravastatin-treated and placebo groups. All individuals included in the study had signed a written informed consent form and the study protocol was approved by the respective Institutional Review Boards (IRBs).
For genotyping SNPs in CARE patient samples, DNA was extracted from blood samples using conventional DNA extraction methods such as the QIA-amp kit from Qiagen. Genotypes were obtained on an ABI PRISM® 7900HT Sequence Detection PCR system (Applied Biosystems, Foster City, Calif.) by kinetic allele-specific PCR, similar to the method described by Germer et al. (Germer S., Holland M. J., Higuchi R. 2000, Genome Res. 10: 258-266).
Statistical analysis for association of SNPs with pravastatin treatment in cardiovascular events prevention (Table 8) was carried out using an overall logistic regression model that included an intercept, a parameter for the effect of a genotype containing two rare alleles versus a genotype containing no rare alleles, a parameter for the effect of a genotype containing one rare allele versus a genotype containing no rare alleles, a parameter for the effect of use of pravastatin versus the use of placebo, and parameters for the interaction effects between SNP genotypes and pravastatin use. The test of the overall model is a chi-square test with two degrees of freedom for analyses containing all three genotypes, and one degree of freedom for analyses containing two genotypes.
Effect sizes were estimated through odds ratios (pravastatin group versus placebo) for carriers of each genotype (groups of 0, 1, and 2 minor allele carriers). The effect was considered to be significant if p-value for testing whether any of the interactions between SNP genotypes and pravastatin use were <0.05. […] Odds ratios less than one indicate that the specific SNP allele has a protective effect and odds ratios greater than one indicate that the specific SNP allele has an adverse effect.

[1] = IL1A hCV9546471, Total Mortality
[2] = IL1RN hCV8737990, 2 Rare Alleles, n/total 20/121
[3] = IL1RN hCV8737990, Fatal CHD/Definite Non-fatal MI
[4] = IL1RN hCV8737990, Fatal/Non-fatal Atherosclerotic CV Disease
[5] = IL1RN hCV8737990, Fatal/Non-fatal MI (def & prob)
[6] = IL1RN hCV8737990, Hosp. for Cardiovascular Disease
[7] = IL1RN hCV8737990, Non-fatal MI (def & prob)
[8] = IL1RN hCV8737990, Total Cardiovascular Disease Events
[9] = IL1RN hCV8737990, Total Coronary Heart Disease Events
[10] = IL6ST hCV16170435, 2 Rare Alleles, n/total 19/37
[11] = IL6ST hCV16170435, Hosp. for Cardiovascular Disease
[12] = IL6ST hCV16170435, Total Cardiovascular Disease Events
[13] = IL9 hCV3275199, All Patients, 0 Rare Alleles, Prava arm

For `CC[C@H](C)C(=O)O[C@H]1C[C@H](O)C=C2C=C[C@H](C)[C@H](CC[C@@H](O)C[C@@H](O)CC(=O)O)[C@H]21` [pravastatin], the “Prava vs. Placebo Odds Ratio, 1 Rare Alleles” value [1] was 0.60, the “Prava vs. Placebo Odds Ratio, 2 Rare Alleles” value [1] was 0.29 and the “Non-fatal MI (def & prob), n/total (%)” value (IL1RN hCV8737990, 0 Rare Alleles, n/total 68/809) was “(8.4%)”. The “Fatal/Non-fatal MI (def & prob), n/total (%)” value (“Fatal/Non-fatal MI … (%)” for short) (IL1RN hCV8737990, 0 Rare Alleles, n/total 76/809) was “(9.4%)”, the “Fatal CHD/Definite Non-fatal MI, n/total (%)” value (IL1RN hCV8737990, 0 Rare Alleles, n/total 80/809) was “(9.9%)” and the “Total Coronary Heart Disease Events, n/total (%)” value (IL1RN hCV8737990, 0 Rare Alleles, n/total 228/809) was “(28.2%)”. The “Fatal/Non-fatal Atherosclerotic CV Disease, n/total (%)” value (IL1RN hCV8737990, 0 Rare Alleles, n/total 260/809) was “(32.1%)”, the “Hosp. for Cardiovascular Disease, n/total (%)” value (IL1RN hCV8737990, 0 Rare Alleles, n/total 315/809) was “(38.9%)” and the “Total Cardiovascular Disease Events, n/total (%)” value (IL1RN hCV8737990, 0 Rare Alleles, n/total 325/809) was “(40.2%)”. The “Fatal CHD/Definite Non-fatal MI, n/total (%)” value (IL1RN hCV8737990, 1 Rare Allele, n/total 44/585) was “(7.5%)”, the “Non-fatal MI (def & prob), n/total (%)” value (IL1RN hCV8737990, 1 Rare Allele, n/total 45/585) was “(7.7%)” and the “Fatal/Non-fatal MI … (%)” value (IL1RN hCV8737990, 1 Rare Allele, n/total 49/585) was “(8.4%)”. For the same compound, the “Total Coronary Heart Disease Events, n/total (%)” value (IL1RN hCV8737990, 1 Rare Allele, n/total 167/585) was “(28.5%)”, the “Fatal/Non-fatal Atherosclerotic CV Disease, n/total (%)” value (IL1RN hCV8737990, 1 Rare Allele, n/total 193/585) was “(33.0%)” and the “Hosp. for Cardiovascular Disease, n/total (%)” value (IL1RN hCV8737990, 1 Rare Allele, n/total 232/585) was “(39.7%)”. The “Total Cardiovascular Disease Events, n/total (%)” value (IL1RN hCV8737990, 1 Rare Allele, n/total 239/585) was “(40.9%)”, the “Fatal CHD/Definite Non-fatal MI, n/total (%)” value (IL1RN hCV8737990, 2 Rare Alleles, n/total 15/121) was “(12.4%)” and the “Fatal/Non-fatal MI … (%)” value [2] was “(16.5%)”. For the same compound, the “Non-fatal MI (def & prob), n/total (%)” value [2] was “(16.5%)”, the “Total Coronary Heart Disease Events, n/total (%)” value (IL1RN hCV8737990, 2 Rare Alleles, n/total 45/121) was “(37.2%)” and the “Fatal/Non-fatal Atherosclerotic CV Disease, n/total (%)” value (IL1RN hCV8737990, 2 Rare Alleles, n/total 51/121) was “(42.1%)”. The “Hosp. for Cardiovascular Disease, n/total (%)” value (IL1RN hCV8737990, 2 Rare Alleles, n/total 60/121) was “(49.6%)”, the “Total Cardiovascular Disease Events, n/total (%)” value (IL1RN hCV8737990, 2 Rare Alleles, n/total 61/121) was “(50.4%)” and the “Prava vs. Placebo Odds Ratio, 0 Rare Alleles” value [3] was 0.75. For the same compound, the “Prava vs. Placebo Odds Ratio, 1 Rare Alleles” value [3] was 0.52, the “Prava vs. Placebo Odds Ratio, 2 Rare Alleles” value [3] was 1.89 and the “Prava vs. Placebo Odds Ratio, 0 Rare Alleles” value [4] was 0.75. For the same compound, the “Prava vs. Placebo Odds Ratio, 1 Rare Alleles” value [4] was 0.66, the “Prava vs. Placebo Odds Ratio, 2 Rare Alleles” value [4] was 1.67 and the “Prava vs. Placebo Odds Ratio, 0 Rare Alleles” value [5] was 0.66. The “Prava vs. Placebo Odds Ratio, 1 Rare Alleles” value [5] was 0.51, the “Prava vs. Placebo Odds Ratio, 2 Rare Alleles” value [5] was 1.70 and the “Prava vs. Placebo Odds Ratio, 0 Rare Alleles” value [6] was 0.77. For the same compound, the “Prava vs. Placebo Odds Ratio, 1 Rare Alleles” value [6] was 0.64, the “Prava vs. Placebo Odds Ratio, 2 Rare Alleles” value [6] was 1.37 and the “Prava vs. Placebo Odds Ratio, 0 Rare Alleles” value [7] was 0.68. The “Prava vs. Placebo Odds Ratio, 1 Rare Alleles” value [7] was 0.52, the “Prava vs. Placebo Odds Ratio, 2 Rare Alleles” value [7] was 1.70 and the “Prava vs. Placebo Odds Ratio, 0 Rare Alleles” value [8] was 0.75. For the same compound, the “Prava vs. Placebo Odds Ratio, 1 Rare Alleles” value [8] was 0.65, the “Prava vs. Placebo Odds Ratio, 2 Rare Alleles” value [8] was 1.37 and the “Prava vs. Placebo Odds Ratio, 0 Rare Alleles” value [9] was 0.74. The “Prava vs. Placebo Odds Ratio, 1 Rare Alleles” value [9] was 0.67, the “Prava vs. Placebo Odds Ratio, 2 Rare Alleles” value [9] was 1.84 and the “Hosp. for Cardiovascular Disease, n/total (%)” value (IL6ST hCV16170435, 0 Rare Alleles, n/total 450/1131) was “(39.8%)”. The “Total Cardiovascular Disease Events, n/total (%)” value (IL6ST hCV16170435, 0 Rare Alleles, n/total 465/1131) was “(41.1%)”, the “Hosp. for Cardiovascular Disease, n/total (%)” value (IL6ST hCV16170435, 1 Rare Allele, n/total 139/340) was “(40.9%)” and the “Total Cardiovascular Disease Events, n/total (%)” value (IL6ST hCV16170435, 1 Rare Allele, n/total 142/340) was “(41.8%)”. For the same compound, the “Hosp. for Cardiovascular Disease, n/total (%)” value [10] was “(51.4%)”, the “Total Cardiovascular Disease Events, n/total (%)” value [10] was “(51.4%)” and the “Prava vs. Placebo Odds Ratio, 0 Rare Alleles” value [11] was 0.75. The “Prava vs. Placebo Odds Ratio, 1 Rare Alleles” value [11] was 0.72, the “Prava vs. Placebo Odds Ratio, 2 Rare Alleles” value [11] was 2.49 and the “Prava vs. Placebo Odds Ratio, 0 Rare Alleles” value [12] was 0.75. The “Prava vs. Placebo Odds Ratio, 1 Rare Alleles” value [12] was 0.69, the “Prava vs. Placebo Odds Ratio, 2 Rare Alleles” value [12] was 2.49 and the “Fatal/Nonfatal MI (def & prob), n/total (%)” value [13] was “(10.8%)”. The “MI (Fatal/Nonfatal), n/total (%)” value [13] was “(11.1%)”.
